Measured values published in patent publication US11208412B2 (DAEGU-GYEONGBUK MEDICAL INNOVATION FOUNDATION, priority 2017, dated 2021).

Tests used:
Test in all cases: Kinase selectivity, DiscoverX scanMAX Kinase assay panel (% control)
Format in all cases: binding
[1] = biological target: T1, kinases of the scanMAX Kinase assay panel (Homo sapiens, UniProt O75747); conditions: PIK3C2G; 1 uM
T1 construct: purchased DiscoverX Co. (contract measurement) scanMAX Kinase assay panel
T1 sequence (O75747 1-1486): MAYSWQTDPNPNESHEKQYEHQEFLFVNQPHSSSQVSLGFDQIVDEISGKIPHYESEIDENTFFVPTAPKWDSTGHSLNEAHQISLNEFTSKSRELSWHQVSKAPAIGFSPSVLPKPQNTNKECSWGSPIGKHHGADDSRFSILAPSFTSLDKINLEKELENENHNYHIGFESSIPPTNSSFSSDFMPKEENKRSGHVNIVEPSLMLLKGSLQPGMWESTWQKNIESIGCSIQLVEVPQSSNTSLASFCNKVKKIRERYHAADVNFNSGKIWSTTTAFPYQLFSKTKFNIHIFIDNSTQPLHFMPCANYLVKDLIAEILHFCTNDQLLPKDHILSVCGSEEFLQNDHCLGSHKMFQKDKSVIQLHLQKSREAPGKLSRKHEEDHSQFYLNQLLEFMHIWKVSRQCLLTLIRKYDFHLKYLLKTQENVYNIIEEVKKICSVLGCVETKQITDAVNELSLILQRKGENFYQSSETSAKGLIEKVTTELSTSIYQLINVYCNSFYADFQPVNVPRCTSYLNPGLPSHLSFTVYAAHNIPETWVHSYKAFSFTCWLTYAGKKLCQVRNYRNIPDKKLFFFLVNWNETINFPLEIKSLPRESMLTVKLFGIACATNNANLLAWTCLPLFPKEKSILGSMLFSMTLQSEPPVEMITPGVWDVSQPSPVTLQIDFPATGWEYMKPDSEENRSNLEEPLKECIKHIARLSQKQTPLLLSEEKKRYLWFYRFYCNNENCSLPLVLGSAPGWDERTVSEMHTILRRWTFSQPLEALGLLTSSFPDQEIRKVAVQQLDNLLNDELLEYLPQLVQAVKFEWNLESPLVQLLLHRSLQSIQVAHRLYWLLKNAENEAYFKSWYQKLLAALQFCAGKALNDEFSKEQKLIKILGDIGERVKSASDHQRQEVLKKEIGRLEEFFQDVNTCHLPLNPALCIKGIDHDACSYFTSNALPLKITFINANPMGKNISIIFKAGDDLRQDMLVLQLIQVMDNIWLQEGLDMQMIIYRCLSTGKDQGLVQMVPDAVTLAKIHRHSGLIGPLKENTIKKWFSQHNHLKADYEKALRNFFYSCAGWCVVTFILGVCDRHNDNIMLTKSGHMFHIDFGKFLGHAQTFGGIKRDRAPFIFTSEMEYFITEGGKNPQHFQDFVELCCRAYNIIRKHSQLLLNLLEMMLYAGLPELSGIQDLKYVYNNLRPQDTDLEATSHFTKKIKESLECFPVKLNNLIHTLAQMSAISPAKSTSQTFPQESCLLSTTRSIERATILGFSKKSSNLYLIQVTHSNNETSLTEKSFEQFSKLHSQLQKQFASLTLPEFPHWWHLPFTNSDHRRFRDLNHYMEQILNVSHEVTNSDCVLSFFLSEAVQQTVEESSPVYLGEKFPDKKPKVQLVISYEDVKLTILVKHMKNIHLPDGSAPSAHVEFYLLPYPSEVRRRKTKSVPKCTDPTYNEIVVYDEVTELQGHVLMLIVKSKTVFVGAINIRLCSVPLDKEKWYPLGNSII
Procedure, shortened: (§1)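 Compounds were tested at 1 uM (in DMSO) against each panel kinase. % control was calculated as (compound − positive control)/(negative control − positive control)×100, where the positive control gives 0% and DMSO gives 100%. Activity toward a kinase was called at % control <35%.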

[2] = biological target: T2, kinases of the scanMAX Kinase assay panel (Homo sapiens, UniProt Q86Y07); conditions: kinase VRK2; 1 uM in DMSO
T2 construct: purchased DiscoverX Co. (contract measurement) scanMAX Kinase assay panel
Procedure, shortened: as §1

[3] = biological target: T3, kinases of the scanMAX Kinase assay panel (Homo sapiens, UniProt Q96BR1); conditions: kinase SGK3; 1 uM in DMSO
T3 construct: purchased DiscoverX Co. (contract measurement) scanMAX Kinase assay panel
T3 sequence (Q96BR1 1-496): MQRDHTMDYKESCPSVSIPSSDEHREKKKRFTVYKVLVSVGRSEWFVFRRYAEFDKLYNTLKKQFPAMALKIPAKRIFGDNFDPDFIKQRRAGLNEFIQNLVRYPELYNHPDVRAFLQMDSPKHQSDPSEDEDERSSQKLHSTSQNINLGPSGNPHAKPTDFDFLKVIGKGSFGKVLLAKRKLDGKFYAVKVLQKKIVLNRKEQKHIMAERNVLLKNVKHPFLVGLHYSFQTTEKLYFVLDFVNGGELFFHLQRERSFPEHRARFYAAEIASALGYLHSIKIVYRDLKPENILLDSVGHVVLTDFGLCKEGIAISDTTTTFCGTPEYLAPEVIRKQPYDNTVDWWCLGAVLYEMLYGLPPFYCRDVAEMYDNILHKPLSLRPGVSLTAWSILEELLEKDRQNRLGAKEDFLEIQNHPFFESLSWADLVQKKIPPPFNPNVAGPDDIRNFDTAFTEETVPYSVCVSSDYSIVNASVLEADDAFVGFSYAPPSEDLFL
Procedure, shortened: as §1

T2 sequence (Q86Y07 whole entry): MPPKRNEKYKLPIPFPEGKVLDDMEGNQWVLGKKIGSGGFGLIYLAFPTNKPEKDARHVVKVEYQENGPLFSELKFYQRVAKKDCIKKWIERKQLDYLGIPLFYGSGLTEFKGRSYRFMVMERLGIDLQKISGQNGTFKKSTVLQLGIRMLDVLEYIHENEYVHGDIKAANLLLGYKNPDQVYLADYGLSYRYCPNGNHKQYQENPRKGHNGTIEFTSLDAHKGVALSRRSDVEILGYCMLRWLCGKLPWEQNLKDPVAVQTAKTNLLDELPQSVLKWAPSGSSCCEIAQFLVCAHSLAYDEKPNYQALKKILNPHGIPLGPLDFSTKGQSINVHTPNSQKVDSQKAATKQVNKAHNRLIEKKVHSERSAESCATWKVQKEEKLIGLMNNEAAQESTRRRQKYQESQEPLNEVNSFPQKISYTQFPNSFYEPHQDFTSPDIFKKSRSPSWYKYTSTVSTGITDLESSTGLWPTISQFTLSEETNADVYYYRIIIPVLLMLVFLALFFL

Compound | remaining binding at 1 µM [1] | remaining binding at 1 µM [2] | remaining binding at 1 µM [3]
CCNc1nc(Nc2ccc(C(=O)N3CCC(N4CCOCC4)CC3)cc2OC)nc2[nH]cc(C(F)(F)F)c12 [Example 104, (4-((4-(ethylamino)-5-(trifluoromethyl)-7H-pyrrolo[2,3-d]pyrimidine-2-yl)amino)-3-methoxyphenyl)(4-morpholinopiperidine-1-yl)methanone] | 86% | 100% | 87%
CC1(Nc2nc(Nc3cnn([C@H]4CCN(C5COC5)C[C@@H]4F)c3Cl)nc3[nH]cc(C#N)c23)CC1 [Example 52, 2-((5-chloro-1-((3S,4S)-3-fluoro-1-(oxetane-3-yl)piperidine-4-yl)-1H-pyrazole-4-yl)amino)((1-methylcyclopropyl)amino)-7H-pyrrolo[2,3-d]pyrimidine-5-carbonitrile] | 72% | 100% | 70%
CNc1nc(Nc2ccc(C(=O)N3CCOCC3)cc2OC)nc2[nH]cc(C#N)c12 [Example 1, 2-((2-methoxy-4-(morpholine-4-carbonyl)phenyl)amino)-4-(methylamino)-7H-pyrrolo[2,3-d]pyrimidine-5-carbonitrile] | 99% | 71% | 63%
